Patent US20040224958A1, “Pyridopyrimidinone derivatives for treatment of neurodegenerative disease” (priority 2000, published 2004)
Like-named read-outs stand apart in the source and are kept apart here.

What was measured:
Cdk5/p25 = Cdk5/p25 (Homo sapiens, UniProt Q00535); experiment: Cyclin-Dependent Kinase 5 High Throughput Screening (cdk5-HTS) Assay; assay type: biochemical; details: high throughput screen
Method in brief: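 IC50 determined from 33P incorporation into GST-RbCOOH captured on glutathione plates and read by scintillation counting. Reaction: 1.0 μg/mL Cdk5/p25, 20 μM [γ33P]ATP, pH 7.4 Tris buffer with MgCl2 and DTT, 30 min at room temperature, stopped with EDTA.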

cdk4/D = cdk4/D (Homo sapiens, UniProt P11802); experiment: Cyclin-Dependent Kinase 4 (cdk4) Assay; assay type: biochemical; details: read-out: cdk4/D IC50
cdk4/D, sequence (P11802 whole entry): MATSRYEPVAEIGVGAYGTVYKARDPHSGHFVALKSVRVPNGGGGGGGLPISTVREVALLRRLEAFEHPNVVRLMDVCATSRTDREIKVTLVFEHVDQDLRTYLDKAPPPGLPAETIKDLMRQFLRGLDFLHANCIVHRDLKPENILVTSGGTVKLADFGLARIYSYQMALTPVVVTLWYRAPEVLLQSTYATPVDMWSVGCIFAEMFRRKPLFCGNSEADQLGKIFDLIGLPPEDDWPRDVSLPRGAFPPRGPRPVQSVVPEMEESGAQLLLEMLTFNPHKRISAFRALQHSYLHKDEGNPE
cdk4/D, sequence (P24385 whole entry, further chain): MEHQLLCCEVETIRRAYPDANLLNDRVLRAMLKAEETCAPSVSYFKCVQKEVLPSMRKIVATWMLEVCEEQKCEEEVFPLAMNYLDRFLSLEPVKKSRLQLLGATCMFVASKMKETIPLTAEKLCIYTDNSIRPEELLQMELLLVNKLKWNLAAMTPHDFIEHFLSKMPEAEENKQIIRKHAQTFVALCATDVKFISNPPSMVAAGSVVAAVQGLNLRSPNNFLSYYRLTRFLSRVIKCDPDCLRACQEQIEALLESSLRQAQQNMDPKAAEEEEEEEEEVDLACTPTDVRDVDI

cdk2/cyclinE = cdk2/cyclinE (Homo sapiens, UniProt P24941); experiment: Cyclin-Dependent Kinase Assay cdk2/cyclinE
cdk2/cyclinA = cdk2/cyclinA (Homo sapiens, UniProt P24941); experiment: Cyclin-Dependent Kinase Assay cdk2/cyclinA
cdc2/cyclinB = cdc2/cyclinB (Homo sapiens, UniProt P06493); experiment: Cyclin-Dependent Kinase Assay cdc2/cyclinB
cdc2/cyclinB, sequence (P06493 whole entry): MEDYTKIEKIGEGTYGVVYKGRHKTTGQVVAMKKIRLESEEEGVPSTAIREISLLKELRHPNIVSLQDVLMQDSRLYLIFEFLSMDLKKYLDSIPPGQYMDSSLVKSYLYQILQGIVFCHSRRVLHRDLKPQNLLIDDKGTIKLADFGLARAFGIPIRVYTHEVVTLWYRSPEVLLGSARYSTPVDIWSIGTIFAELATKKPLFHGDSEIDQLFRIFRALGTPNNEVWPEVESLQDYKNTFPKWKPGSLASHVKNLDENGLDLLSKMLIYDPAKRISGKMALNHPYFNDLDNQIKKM
cdc2/cyclinB, sequence (P14635 whole entry, further chain): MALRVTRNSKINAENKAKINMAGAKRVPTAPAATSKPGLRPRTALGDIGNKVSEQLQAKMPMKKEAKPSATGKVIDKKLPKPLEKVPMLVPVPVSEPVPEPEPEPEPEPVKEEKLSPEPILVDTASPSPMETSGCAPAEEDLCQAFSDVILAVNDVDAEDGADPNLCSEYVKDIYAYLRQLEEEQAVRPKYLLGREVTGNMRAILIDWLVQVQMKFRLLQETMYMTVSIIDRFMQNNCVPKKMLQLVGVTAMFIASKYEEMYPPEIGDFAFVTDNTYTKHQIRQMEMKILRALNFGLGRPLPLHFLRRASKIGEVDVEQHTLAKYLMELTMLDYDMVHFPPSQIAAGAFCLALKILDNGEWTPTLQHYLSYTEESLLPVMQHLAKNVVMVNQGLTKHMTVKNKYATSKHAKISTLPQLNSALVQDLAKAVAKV

Molecule | IC50 (Cdk5/p25) | IC50 (cdk4/D) | IC50 (cdk2/cyclinE; cdk2/E IC50) | IC50 (cdk2/cyclinA; cdk2/A IC50) | IC50 (cdc2/cyclinB) | IC50 (cdk2/cyclinE; read-out: cdk2/E IC50) | IC50 (cdk2/cyclinA; read-out: cdk2/A IC50) | IC50 (cdc2/cyclinB; read-out: cdk1/B IC50) | IC50 (cdk2/cyclinE) | IC50 (cdk2/cyclinA)
CCC(C)n1c(=O)ccc2cnc(Nc3ccc(F)c(Cl)c3)nc21 (centres unmarked) [Example 460, 8-sec-Butyl-2-(3-chloro-4-fluoro-phenylamino)-8H-pyrido[2,3-d]pyrimidin-7-one] | 36 nM | 160 nM | 73 nM | 260 nM | 140 nM |  |  |  |  | 
CCC(CC)n1c(=O)ccc2cnc(Nc3ccc(Br)c(C(F)(F)F)c3)nc21 [Example 488, 2-(4-Bromo-3-trifluoromethyl-phenylamino)-8-(1-ethyl-propyl)-8H-pyrido[2,3-d]pyrimidin-7-one] | 124 nM | 2240 nM | 494 nM | 1980 nM | 446 nM |  |  |  |  | 
CCCCn1c(=O)ccc2cnc(Nc3ccc4[nH]ncc4c3)nc21 [Example 379, 8-Butyl-2-(1H-indazol-5-ylamino)-8H-pyrido[2,3-d]pyrimidin-7-one] | 46.5 nM | 140 nM | 27.3 nM | 84 nM | 43 nM |  |  |  |  | 
Cc1cc(Nc2ncc3ccc(=O)n(C4CCCC4)c3n2)ccc1Br [Example 562, 2-(4-Bromo-3-methyl-phenylamino)-8-cyclopentyl-8H-pyrido[2,3-d]pyrimidin-7-one] | 50 nM | 160 nM | 140 nM | 56 nM | 47 nM |  |  |  |  | 
CC(C)n1c(=O)ccc2cnc(Nc3ccc4[nH]nnc4c3)nc21 [Example 410, 2-(1H-Benzotriazol-5-ylamino)-8-isopropyl-8H-pyrido[2,3-d]pyrimidin-7-one] | 44.5 nM | 152 nM | 88 nM | 135 nM | 245 nM |  |  |  |  | 
CCCn1c(=O)ccc2cnc(Nc3ccc(C)c(C)c3)nc21 [Example 318, 2-(3,4-Dimethyl-phenylamino)-8-propyl-8H-pyrido[2,3-d]pyrimidin-7-one] | 69.1 nM | 430 nM | 289 nM | 1280 nM | 216 nM |  |  |  |  | 
2-(4-Bromo-3-trifluoromethyl-phenylamino)-8-cyclopentyl-8H-pyrido[2,3-d]pyrimidin-7-one [Example 561] | 440 nM | 480 nM |  |  |  | 150 nM | 220 nM | 350 nM |  | 
CCCCn1c(=O)ccc2cnc(Nc3ccc(NC(=O)OC(C)(C)C)cc3)nc21 [Example 381, [4-(8-Butyl-7-oxo-7,8-dihydro-pyrido[2,3-d]pyrimidin-2-ylamino)-phenyl]-carbamic acid tert-butyl ester] | 205 nM | 400 nM | 133 nM | 515 nM | 150 nM |  |  |  |  | 
CC(=O)Nc1cc(Nc2ncc3ccc(=O)n(CC4CC4)c3n2)ccc1C#N [Example 574, N-[2-Cyano-5-(8-cyclopropylmethyl-7-oxo-7,8-dihydro-pyrido[2,3-d]pyrimidin-2-ylamino)-phenyl]-acetamide] | 140 nM | 80 nM | 270 nM | 520 nM | 290 nM |  |  |  |  | 
CC(C)(C)OC(=O)Nc1ccc(Nc2ncc3ccc(=O)n(C4CCCC4)c3n2)cc1 [Example 535, [4-(8-Cyclopentyl-7-oxo-7,8-dihydro-pyrido[2,3-d]pyrimidin-2-ylamino)-phenyl]-carbamic acid tert-butyl ester] | 74 nM | 63.5 nM | 88.7 nM | 220 nM | 145 nM |  |  |  |  | 
O=c1[nH]c2cc(Nc3ncc4ccc(=O)n(C5CCCC5)c4n3)ccc2o1 [Example 554, 8-Cyclopentyl-2-(2-oxo-2,3-dihydro-benzoxazol-5-ylamino)-8H-pyrido[2,3-d]pyrimidin-7-one] | 32 nM | 230 nM | 152 nM | 148 nM | 169 nM |  |  |  |  | 
CCCn1c(=O)ccc2cnc(Nc3ccc(C)c(F)c3)nc21 [Example 376, 2-(3-Fluoro-4-methyl-phenylamino)-8-propyl-8H-pyrido[2,3-d]pyrimidin-7-one] | 131 nM | 380 nM | 400 nM | 1180 nM | 275 nM |  |  |  |  | 
CCn1c(=O)ccc2cnc(Nc3ccc4[nH]ncc4c3)nc21 [Example 286, 8-Ethyl-2-(1H-indazol-5-ylamino)-8H-pyrido[2,3-d]pyrimidin-7-one] | 108 nM | 475 nM | 223 nM | 630 nM | 275 nM |  |  |  |  | 
CCCCn1c(=O)ccc2cnc(Nc3ccc(S(N)(=O)=O)cc3)nc21 [Example 393, 4-(8-Butyl-7-oxo-7,8-dihydro-pyrido[2,3-d]pyrimidin-2-ylamino)-benzenesulfonamide] | 9.7 nM | 180 nM | 11 nM | 34 nM | 45 nM |  |  |  |  | 
CCCCn1c(=O)ccc2cnc(Nc3cc(C)cc(C)c3)nc21 [Example 399, 8-Butyl-2-(3,5-dimethyl-phenylamino)-8H-pyrido[2,3-d]pyrimidin-7-one] | 14 nM | 920 nM | 50 nM | 310 nM | 63 nM |  |  |  |  | 
CCC(CC)n1c(=O)ccc2cnc(Nc3cc(OC)cc(C(F)(F)F)c3)nc21 [Example 508, 8-(1-Ethyl-propyl)-2-(3-methoxy-5-trifluoromethyl-phenylamino)-8H-pyrido[2,3-d]pyrimidin-7-one] | 70 nM | 140 nM | 280 nM | 2100 nM | 230 nM |  |  |  |  | 
COc1ccc(Nc2ncc3ccc(=O)n(CC(F)(F)F)c3n2)cc1OC [Example 600, 2-(3,4-Dimethoxy-phenylamino)-8-(2,2,2-trifluoro-ethyl)-8H-pyrido[2,3-d]pyrimidin-7-one] | 124 nM | 1780 nM | 970 nM | 1600 nM | 905 nM |  |  |  |  | 
O=c1[nH]c2ccc(Nc3ncc4ccc(=O)n(CC5CC5)c4n3)cc2[nH]1 [Example 577, 8-Cyclopropylmethyl-2-(2-oxo-2,3-dihydro-1H-benzimidazol-5-ylamino)-8H-pyrido[2,3-d]pyrimidin-7-one] | 92 nM | 230 nM | 110 nM | 120 nM | 120 nM |  |  |  |  | 
CCCn1c(=O)ccc2cnc(Nc3ccc4cn[nH]c4c3)nc21 [Example 358, 2-(1H-Indazol-6-ylamino)-8-propyl-8H-pyrido[2,3-d]pyrimidin-7-one] | 90 nM | 300 nM | 180 nM | 83 nM | 160 nM |  |  |  |  | 
CCC(CC)n1c(=O)ccc2cnc(Nc3ccc4cn[nH]c4c3)nc21 [Example 518, 8-(1-Ethyl-propyl)-2-(1H-indazol-6-ylamino)-8H-pyrido[2,3-d]pyrimidin-7-one] | 17.5 nM | 365 nM | 53 nM | 57.5 nM | 31.5 nM |  |  |  |  | 
CC(C)n1c(=O)ccc2cnc(Nc3ccc(O)c(Cl)c3)nc21 [Example 413, 2-(3-Chloro-4-hydroxy-phenylamino)-8-isopropyl-8H-pyrido[2,3-d]pyrimidin-7-one] | 43.5 nM | 180 nM | 52.3 nM | 138 nM | 68 nM |  |  |  |  | 
Cc1cc(Nc2ncc3ccc(=O)n(C(C)C)c3n2)cc(C)c1O [Example 441, 2-(4-Hydroxy-3,5-dimethyl-phenylamino)-8-isopropyl-8H-pyrido[2,3-d]pyrimidin-7-one] | 150 nM | 890 nM | 470 nM | 290 nM | 290 nM |  |  |  |  | 
O=C1CSc2ccc(Nc3ncc4ccc(=O)n(CC5CC5)c4n3)cc2N1 [Example 584, 8-Cyclopropylmethyl-2-(3-oxo-3,4-dihydro-2H-1,4-benzothiazin-6-ylamino)-8H-pyrido[2,3-d]pyrimidin-7-one] | 39 nM | 98 nM | 100 nM | 140 nM | 170 nM |  |  |  |  | 
CC(C)n1c(=O)ccc2cnc(Nc3ccc(F)c(F)c3)nc21 [Example 426, 2-(3,4-Difluoro-phenylamino)-8-isopropyl-8H-pyrido[2,3-d]pyrimidin-7-one] | 21 nM | 58 nM | 130 nM | 210 nM | 310 nM |  |  |  |  | 
CCn1c(=O)ccc2cnc(Nc3ccc(F)c(C)c3)nc21 [Example 294, 8-Ethyl-2-(4-fluoro-3-methyl-phenylamino)-8H-pyrido[2,3-d]pyrimidin-7-one] | 43 nM | 410 nM | 130 nM | 640 nM | 210 nM |  |  |  |  | 
CCC(CC)n1c(=O)ccc2cnc(Nc3ccc(C)c(F)c3)nc21 [Example 482, 8-(1-Ethyl-propyl)-2-(3-fluoro-4-methyl-phenylamino)-8H-pyrido[2,3-d]pyrimidin-7-one] | 63.2 nM | 166 nM |  |  | 214 nM |  |  |  | 152 nM | 597 nM
O=c1ccc2cnc(Nc3cccc(C(F)(F)F)c3)nc2n1C1CCCC1 [Example 530, 8-Cyclopentyl-2-(3-trifluoromethyl-phenylamino)-8H-pyrido[2,3-d]pyrimidin-7-one] | 99 nM | 1700 nM | 180 nM | 250 nM | 220 nM |  |  |  |  | 
O=c1ccc2cnc(Nc3ccc(O)c(Cl)c3)nc2n1CC1CC1 [Example 567, 2-(3-Chloro-4-hydroxy-phenylamino)-8-cyclopropylmethyl-8H-pyrido[2,3-d]pyrimidin-7-one] | 31.5 nM | 145 nM | 16.3 nM | 54.5 nM | 76 nM |  |  |  |  | 
